We go through two molecules from patent US7314970B2, “Method for plant breeding” (priority 1997, dated 2008).

Molecules are shown by their SMILES.

One data set concerns most plant species. Particulars: most plant species (Franz, 1985), but not all; cited from earlier work.
Data set [1] relates to DK580 and DK626 hybrids of FI117, GA21, GG25 and GJ11. In words: Yield effect of glyphosate application on DK580 and DK626 hybrids (field test). The data set is classed as in vivo, maize. On the procedure: Tests were designed as four row, 3 rep., split-split-plot with main plots as hybrids, subplots as transformant sources (i.e. GA21, GG25, FI117, and GJ11) and subplots as timing/rate combinations […]. Statistical methods for design and analysis of data derived from experimental field plots are described in Gomez and Gomez, (1984). Tests were conducted in Dekalb, Ill., and Thomasboro, Ill. during 1996. All rows were planted at double normal planting density, i.e., 60 seeds per row, because hybrids segregated 1:1 for the glyphosate resistance trait. Sprayed plants were thinned to 30 plants per row no sooner than 7 days after application of Roundup at a time when Roundup susceptible plants could be identified. Unsprayed plots were thinned to 30 plants per row at the same time. […] After thinning, the mean extended leaf height was measured on 10 resistant plants per plot. […]
Four DK580 and four DK626 hybrids, each containing a different mutant EPSPS transgene from one of the GA21, FI117, GJ11 or GG25 transformation events, were field tested for possible effects on yield with glyphosate application as described in Example 12, with treatments as shown in FIG. 13. […] Data were analyzed using the SAS PROC MIXED and PROC SUM procedures. […]

The test system of data set [2] is DK580 and DK626 BC4 hybrids of FI117, GA21, GG25 and GJ11. In words: Effect of glyphosate application on growth and fertility of DK580 and DK626 hybrids (field test). The data set is classed as in vivo, maize. From the text: BC4 hybrids of DK580 and DK626 were produced containing one of the FI117, GA21, GG25 or GJ11 transformation events as described in example 14. Comparisons of the effect of glyphosate application on growth (mean extended leaf height) and male fertility was compared at both the V4 and V8 developmental stage. The developmental scale that was used to rate the corn plants is well known in the art, and is described in Special Report No. 48, Iowa State University of Science and Technology, Cooperative Extension Service, Ames, Iowa. Each of the hybrids was studied at both the V4 and V8 stage using 0× glyphosate (i.e. water only), 1× glyphosate, or 4× glyphosate (the 1× level corresponds to 16 ounces/acre of ROUNDUP ULTRA™).
Tests were designed as four row, 3 rep., split-split-plot with main plots as hybrids, subplots as transformant sources (i.e. GA21, GG25, FI117, and GJ11) and subplots as timing/rate combinations […]. Statistical methods for design and analysis of data derived from experimental field plots are described in Gomez and Gomez, (1984). Tests were conducted in Dekalb, Ill., and Thomasboro, Ill. during 1996. All rows were planted at double normal planting density, i.e., 60 seeds per row, because hybrids segregated 1:1 for the glyphosate resistance trait. Sprayed plants were thinned to 30 plants per row no sooner than 7 days after application of Roundup at a time when Roundup susceptible plants could be identified. Unsprayed plots were thinned to 30 plants per row at the same time. At 5-10 days after herbicide application, the following data was collected in each row: number of dead plants, number of damaged plants, and number of normal plants. After thinning, the mean extended leaf height was measured on 10 resistant plants per plot. During the remainder of the growing season the following agronomic data was collected: early stand count, seedling vigor, final stand count, plant height, ear height, intactness, stay green, number of barren plants, number of male-sterile plants, number of dropped ears, number of root lodged plants, number of stalks lodged plants, shelled grain weight, per cent grain moisture at harvest, and test weight.

Take `NCP(=O)(O)O` [AMPA, aminomethylphosphonate]: the “phytotoxicity relative to glyphosate” value with most plant species is recorded as “much less phytotoxic than glyphosate”.

Turning to `O=C(O)CNCP(=O)(O)O` [glyphosate, N-phosphonomethyl-glycine], the effect on yield entry in data set [1] (DK580 hybrids, glyphosate applied at V4 stage) is reported as “significant decreases in yield are not observed for 3 of the 4 DK580 hybrids”; in data set [1] (DK626 hybrids with GA21 or FI117, V8 stage, 4× rate), “no significant loss in yield”. For the same molecule, the male fertility entry is reported as “male-fertile plants” in data set [2] (all 4 GA21 treatments); “male-fertile” in data set [2] (application at V4 stage, all plants); “male sterile plants” in data set [2] (application at V8 stage, only GJ11 and GJ25 treatments). In addition, in data set [2] (all 4 transformation events, 1× and 4× application levels (1× = 16 ounces/acre ROUNDUP ULTRA)), the “resistance to glyphosate (mean extended leaf height)” value is “significant resistance”.
